Laboratory results reported in patent publication US10710993B2, “Benzofuran pyrazole amine kinase inhibitor” (Hangzhou REX Pharmaceutical Co., LTD., priority 2016, dated 2020).

Key:
Wild-Type ALK = target: T1, Wild-Type ALK (Homo sapiens, UniProt Q9UM73); assay: Z'-LYTE (FRET) ALK kinase inhibitory activity; assay type: biochemical
T1 construct: purchased Life Technology
Description: (§1) The kinase activity assay was determined by using kinase assay panel (Life Technology) and the result was in table 1.

ALK L1196M = target: T2, ALK L1196M (Homo sapiens, UniProt Q9UM73, L1196M); assay: LanthaScreen Eu Kinase Binding Assay (TR-FRET) on ALK mutant
T2 construct: purchased Life Technology
T2 sequence (Q9UM73 19-1620 L1196M): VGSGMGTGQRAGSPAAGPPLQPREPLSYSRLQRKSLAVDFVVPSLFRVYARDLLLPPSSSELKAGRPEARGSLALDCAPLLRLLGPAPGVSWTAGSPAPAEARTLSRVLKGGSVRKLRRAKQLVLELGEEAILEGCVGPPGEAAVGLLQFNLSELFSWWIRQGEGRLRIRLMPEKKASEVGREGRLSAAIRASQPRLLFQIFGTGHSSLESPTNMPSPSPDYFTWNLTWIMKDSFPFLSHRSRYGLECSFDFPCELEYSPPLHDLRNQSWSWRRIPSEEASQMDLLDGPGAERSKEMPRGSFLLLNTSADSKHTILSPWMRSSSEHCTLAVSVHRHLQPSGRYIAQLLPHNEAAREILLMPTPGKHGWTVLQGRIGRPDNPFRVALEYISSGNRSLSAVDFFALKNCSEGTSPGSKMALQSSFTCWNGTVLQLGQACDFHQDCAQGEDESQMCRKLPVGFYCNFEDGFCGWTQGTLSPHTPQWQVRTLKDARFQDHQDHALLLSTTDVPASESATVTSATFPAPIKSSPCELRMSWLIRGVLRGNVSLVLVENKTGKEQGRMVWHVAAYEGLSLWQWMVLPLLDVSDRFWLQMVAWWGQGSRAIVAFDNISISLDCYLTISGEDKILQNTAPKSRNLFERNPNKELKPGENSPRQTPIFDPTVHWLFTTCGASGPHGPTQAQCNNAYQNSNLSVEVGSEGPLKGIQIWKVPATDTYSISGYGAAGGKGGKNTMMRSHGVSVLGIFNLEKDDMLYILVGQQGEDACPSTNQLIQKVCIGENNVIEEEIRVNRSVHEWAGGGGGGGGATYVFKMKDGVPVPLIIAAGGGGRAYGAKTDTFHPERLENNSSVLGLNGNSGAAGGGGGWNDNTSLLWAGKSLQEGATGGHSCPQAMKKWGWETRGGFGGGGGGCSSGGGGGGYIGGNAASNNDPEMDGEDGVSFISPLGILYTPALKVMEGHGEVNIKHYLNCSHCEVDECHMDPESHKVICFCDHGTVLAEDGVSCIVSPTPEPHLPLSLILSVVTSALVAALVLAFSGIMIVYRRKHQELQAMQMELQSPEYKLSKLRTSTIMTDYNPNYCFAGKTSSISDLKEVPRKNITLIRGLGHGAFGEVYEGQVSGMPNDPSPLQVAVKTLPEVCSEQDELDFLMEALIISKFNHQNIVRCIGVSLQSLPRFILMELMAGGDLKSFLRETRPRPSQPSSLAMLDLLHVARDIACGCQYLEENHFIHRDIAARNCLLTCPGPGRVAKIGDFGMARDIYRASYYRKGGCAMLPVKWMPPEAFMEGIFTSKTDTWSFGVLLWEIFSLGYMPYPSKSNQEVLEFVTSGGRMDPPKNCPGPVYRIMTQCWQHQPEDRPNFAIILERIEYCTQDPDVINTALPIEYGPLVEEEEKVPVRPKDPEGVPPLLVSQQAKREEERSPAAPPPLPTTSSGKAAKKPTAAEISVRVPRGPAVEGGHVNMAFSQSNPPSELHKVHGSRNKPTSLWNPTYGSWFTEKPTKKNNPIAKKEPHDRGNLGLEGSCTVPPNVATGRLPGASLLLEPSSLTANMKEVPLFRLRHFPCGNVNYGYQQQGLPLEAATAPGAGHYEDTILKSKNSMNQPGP
Source text: Meanwhile, The LanthaScreen® Eu Kinase Binging Assay (TR-FRET) method was used for determining ALK Mutants (such as ALK L1196M) inhibitory activity IC50. LanthaScreen Eu kinase binding experiment detected Alexa Fluor conjugate or kinase “tracer” binding by adding Eu labeled antibodies or anti-label antibodies. The combination of tracer and antibody with kinase leads to a high level of FRET, whereas the use of kinase inhibitors in place of tracer may cause FRET loss.
as §1

TEL-ALK-F1174L-BaF3 = target: T3, TEL-ALK-F1174L-BaF3 (Homo sapiens, UniProt Q9UM73, F1174L, cells depend on it); assay: Cell proliferation experiment (Cell-Titer GLO), TEL-ALK-F1174L-BaF3; assay type: cell-based; details: 72 h, read-out: IC50 TEL-ALK F1174L-BaF3
T3 construct: fused on or other part: TEL (ETV6) N-terminal oligomerising part fused before the ALK intracellular/kinase part; P41212 (Transcription factor ETV6)
T3 sequence (Q9UM73 whole entry F1174L, the tested form may be a part): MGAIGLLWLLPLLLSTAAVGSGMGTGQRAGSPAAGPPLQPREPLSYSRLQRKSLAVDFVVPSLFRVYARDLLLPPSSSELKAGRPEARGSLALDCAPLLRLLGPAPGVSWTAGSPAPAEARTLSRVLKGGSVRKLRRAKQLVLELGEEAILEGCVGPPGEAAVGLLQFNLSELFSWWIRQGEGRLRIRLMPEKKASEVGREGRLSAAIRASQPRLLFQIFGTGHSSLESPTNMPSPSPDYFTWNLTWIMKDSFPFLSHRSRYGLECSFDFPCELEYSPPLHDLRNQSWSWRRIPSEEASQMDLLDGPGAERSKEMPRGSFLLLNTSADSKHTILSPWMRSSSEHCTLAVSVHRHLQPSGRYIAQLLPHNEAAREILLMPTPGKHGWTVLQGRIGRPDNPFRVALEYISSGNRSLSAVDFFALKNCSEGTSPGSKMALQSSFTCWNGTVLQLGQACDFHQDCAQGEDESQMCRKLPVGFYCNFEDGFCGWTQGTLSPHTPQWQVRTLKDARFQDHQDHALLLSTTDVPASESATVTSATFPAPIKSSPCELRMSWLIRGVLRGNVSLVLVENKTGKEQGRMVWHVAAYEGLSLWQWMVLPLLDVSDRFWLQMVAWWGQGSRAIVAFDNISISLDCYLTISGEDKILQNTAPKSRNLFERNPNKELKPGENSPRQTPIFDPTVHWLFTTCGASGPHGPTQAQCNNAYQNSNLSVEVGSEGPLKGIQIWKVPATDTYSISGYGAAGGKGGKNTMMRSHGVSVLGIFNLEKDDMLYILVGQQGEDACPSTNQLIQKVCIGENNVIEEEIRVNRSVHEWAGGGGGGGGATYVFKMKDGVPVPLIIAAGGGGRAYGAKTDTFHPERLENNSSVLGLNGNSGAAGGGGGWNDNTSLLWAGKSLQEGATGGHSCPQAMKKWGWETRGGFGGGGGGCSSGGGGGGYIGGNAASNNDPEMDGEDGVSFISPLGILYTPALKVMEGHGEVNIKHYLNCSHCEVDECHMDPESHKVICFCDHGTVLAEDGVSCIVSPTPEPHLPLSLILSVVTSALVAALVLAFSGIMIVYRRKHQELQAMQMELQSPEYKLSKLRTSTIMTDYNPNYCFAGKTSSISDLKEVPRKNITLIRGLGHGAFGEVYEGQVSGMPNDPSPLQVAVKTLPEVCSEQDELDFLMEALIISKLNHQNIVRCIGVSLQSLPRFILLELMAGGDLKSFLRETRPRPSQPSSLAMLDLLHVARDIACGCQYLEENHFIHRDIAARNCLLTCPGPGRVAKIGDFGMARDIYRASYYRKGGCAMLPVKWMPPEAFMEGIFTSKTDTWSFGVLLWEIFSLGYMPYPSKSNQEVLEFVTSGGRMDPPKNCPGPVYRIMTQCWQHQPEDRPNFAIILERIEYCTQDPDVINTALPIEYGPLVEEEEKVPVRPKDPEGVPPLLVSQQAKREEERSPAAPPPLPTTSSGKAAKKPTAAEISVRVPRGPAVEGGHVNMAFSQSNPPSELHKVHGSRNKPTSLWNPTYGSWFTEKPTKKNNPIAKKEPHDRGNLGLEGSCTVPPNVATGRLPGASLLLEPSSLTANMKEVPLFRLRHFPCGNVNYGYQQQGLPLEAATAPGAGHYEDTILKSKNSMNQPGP
Description: (§2) Compounds to be tested: Positive compound Ceritinib and the compounds obtained by the examples of the present invention.
(§3) Cell lines: Karpas-299 and NCI-H3122 which were purchased from the Nanjing kebai biotechnology Co. LTD; TEL-ALK-F1174L-BaF3, TEL-ALK-G1202R-BaF3, TEL-ALK-C1156Y-BaF3 and TEL-ALK-L1196M-BaF3 which were purchased from Hefei zhongkopruisheng biological medicine technology Co. LTD.
(§4) Method: Cells were seeded in 96-well plates for 24 h in growth media containing 10% fetalbovine serum (FBS) and cultured overnight at 37° C. The following day, serial dilutions of compounds or appropriate control were added to the designated wells, and cells were incubated at 37° C. for 72 h. A Cell Titer Glo assay (Promega) was then performed to determine the relative cell numbers. IC50 values were calculated by concentration-response curve fitting using a four-parameter analytical method with Graphpad 6.0. Drug inhibition rate (%)=100%−[OD(Compound)−OD(blank)]/[OD(vehicle)−OD(blank)]×100% Equation: […]

TEL-ALK-G1202R-BaF3 = target: T4, TEL-ALK-G1202R-BaF3 (Homo sapiens, UniProt Q9UM73, G1202R, cells depend on it); assay: Cell proliferation experiment (Cell-Titer GLO), TEL-ALK-G1202R-BaF3; assay type: cell-based; details: 72 h, read-out: IC50 TEL-ALK G1202R-BaF3
T4 construct: fused on or other part: TEL (ETV6) N-terminal oligomerising part fused before the ALK intracellular/kinase part; P41212 (Transcription factor ETV6)
T4 sequence (Q9UM73 whole entry G1202R, the tested form may be a part): as the sequence (Q9UM73 whole entry F1174L, the tested form may be a part) above, with L1174F, G1202R counted along it
Description: as §2, §3, §4

NCI-H3122 = assay: Cell proliferation experiment (Cell-Titer GLO), NCI-H3122; assay type: cell-based; details: Homo sapiens, 72 h
Description: as §2, §3, §4

T1 sequence (Q9UM73 19-1620): as the sequence (Q9UM73 19-1620 L1196M) above, with M1178L counted along it

Compound | IC50 (Wild-Type ALK) | IC50 (ALK L1196M) | GI50 (TEL-ALK-F1174L-BaF3) | GI50 (TEL-ALK-G1202R-BaF3) | IC50 (NCI-H3122)
Cc1cc(Nc2ncc(Cl)c(Nc3cn(C)nc3S(=O)(=O)C(C)C)n2)c2c(c1C1CCN(C(C)C)CC1)C[C@@H](C)O2 [REX-D14, (R)-5-chloro-N^2-(4-(1-isopropylpiperidin-4-yl)-2,5-dimethyl-2,3-dihydrobenzofuran-7-yl)-N^4-(3-(isopropylsulfonyl)-1-methyl-1H-pyrazol-4-yl)pyrimidine-2,4-diamine] | 15.7 nM | 1.1 nM | 11.2 nM | > 180 nM | 10.7 nM
Cc1cc(Nc2ncc(Cl)c(Nc3cn(C4CC4)nc3S(=O)(=O)C(C)C)n2)c2c(c1C1CCNCC1)C[C@@H](C)O2 [REX-D31, (R)-5-chloro-N^4-(1-cyclopropyl-3-(isopropylsulfonyl)-1H-pyrazol-4-yl)-N^2-(2,5-dimethyl-4-(piperidin-4-yl)-2,3-dihydrobenzofuran-7-yl)pyrimidine-2,4-diamine] | 15.1 nM | 1.92 nM | 138 nM | > 180 nM | 40.4 nM
Cc1cc(Nc2ncc(Cl)c(Nc3cn(C(C)C)nc3S(=O)(=O)C(C)C)n2)c2c(c1C1CCNCC1)C[C@@H](C)O2 [REX-D32, (R)-5-chloro-N^2-(2,5-dimethyl-4-(piperidin-4-yl)-2,3-dihydrobenzofuran-7-yl)-N^4-(1-isopropyl-3-(isopropylsulfonyl)-1H-pyrazol-4-yl)pyrimidine-2,4-diamine] | 19.3 nM | 3.86 nM | < 200 nM | > 180 nM | 57.2 nM
CCn1cc(Nc2nc(Nc3cc(C)c(C4CCNCC4)c4c3O[C@H](C)C4)ncc2Cl)c(S(=O)(=O)C(C)C)n1 [REX-D33, (R)-5-chloro-N^2-(2,5-dimethyl-4-(piperidin-4-yl)-2,3-dihydrobenzofuran-7-yl)-N^4-(1-ethyl-3-(isopropylsulfonyl)-1H-pyrazol-4-yl)pyrimidine-2,4-diamine] | 15.5 nM | 2 nM | 33.4 nM | > 180 nM | 11.7 nM
Cc1cc(Nc2ncc(Cl)c(Nc3cn(C4CC4)nc3S(=O)(=O)C(C)C)n2)c2c(c1C1CCN(C)CC1)C[C@@H](C)O2 [REX-D34, (R)-5-chloro-N^4-(1-cyclopropyl-3-(isopropylsulfonyl)-1H-pyrazol-4-yl)-N^2-(2,5-dimethyl-4-(1-methylpiperidin-4-yl)-2,3-dihydrobenzofuran-7-yl)pyrimidine-2,4-diamine] | 9.4 nM | 1.12 nM | 26.1 nM | > 180 nM | 13.9 nM
Cc1cc(Nc2ncc(Cl)c(Nc3cn(C(C)C)nc3S(=O)(=O)C(C)C)n2)c2c(c1C1CCN(C)CC1)C[C@@H](C)O2 [REX-D35, (R)-5-chloro-N^2-(2,5-dimethyl-4-(1-methylpiperidin-4-yl)-2,3-dihydrobenzofuran-7-yl)-N^4-(1-isopropyl-3-(isopropylsulfonyl)-1H-pyrazol-4-yl)pyrimidine-2,4-diamine] | 13.9 nM | 1.99 nM | 80.4 nM | > 180 nM | 40.3 nM
CCn1cc(Nc2nc(Nc3cc(C)c(C4CCN(C)CC4)c4c3O[C@H](C)C4)ncc2Cl)c(S(=O)(=O)C(C)C)n1 [REX-D36, (R)-5-chloro-N^2-(2,5-dimethyl-4-(1-methylpiperidin-4-yl)-2,3-dihydrobenzofuran-7-yl)-N^4-(1-ethyl-3-(isopropylsulfonyl)-1H-pyrazol-4-yl)pyrimidine-2,4-diamine] | 9.28 nM | 0.55 nM | 22.4 nM | > 180 nM | 11.4 nM
